Experimental data as given in patent US20070155771A1, “Methods and means for treating protein conformational disorders” (priority 2003, published 2007).

Assays:
[1] = system: COS-7 cells expressing an exon 1 fragment of the HD gene with 74 glutamines (Q74); assay: Aggregate formation and abnormal cell nuclei in transiently transfected COS-7 cells expressing Q74; assay type: cell-based, African green monkey; settings: for cell death (apoptotic nuclear morphology) in Q74-expressing cells / proportions of Q74-expressing cells with aggregates / appearance (size, number) of Q74 aggregates in cells with aggregates: 48 hours after transfection; for cell death (apoptotic nuclear morphology) in Q74-expressing cells: drug for 15 hours before fixing, same concentrations; for cell death (apoptotic nuclear morphology) in Q74-expressing cells / proportions of Q74-expressing cells with aggregates: vs untreated; for proportions of Q74-expressing cells with aggregates: drug for 15 hours before fixing: 10 mM 3-MA, 0.5 mM DMA, 200 nM BafA1, 0.2 μg/ml rapamycin, 10 μM epoxomicin, 10 μM lactacystin; for appearance (size, number) of Q74 aggregates in cells with aggregates: immunofluorescence, drug 15 hours
Text: (§1) Mammalian expression vectors comprising EGFP (pEGFP-C1, Clontech) fused at its C-terminus with a Huntington's Disease gene exon 1 fragment with 74 polyglutamine repeats (Q74) or a polyalanine stretch of 19 repeats (A19) were used (Rankin, J. et al (2000) Biochem. J., 348, 15-19; Narain, Y. et al (1999) J. Med. Genet., 36, 739-746.). A Haemagglutinin-tagged Huntington's Disease gene exon 1 fragment with 74 polyglutamine repeats in pHM6 vector (Q74-HA) was also used. The PC12 stable lines expressing exon 1 of Huntington gene were as described in Wyttenbach A. et al., (2001) Hum. Mol. Genet. 10 1829-45.
(§2) African green monkey kidney cells (COS-7) were grown in Dulbecco's Modified Eagle Medium (DMEM, Sigma) supplemented with 10% Fetal Bovine Serum (FBS), 100 U/ml Penicillin/Streptomycin, 2 mM L-Glutamine and 1 mM Sodium Pyruvate at 37° C., 5% Carbon dioxide. The cells were grown on coverslips in six-well plates for immunofluorescence analysis, or were directly grown in six-well plates to 60-80% confluency for 24 hours for western blot analysis. Transfection was done using LipofectAMINE reagent (Invitrogen) using the manufacturer's protocol. The transfection mixture was replaced by normal culture medium after 5 hours incubation at 37° C. and the transfected cells were analysed by immunofluorescence or immunoblot 48 hours after transfection. The cells were left untreated or treated with 10 mM 3-methyl adenine (3-MA, Sigma), 0.5 mM N^6, N^6, Dimethyl adenosine (DMA, Sigma), 0.2 μg/ml Rapamycin (Sigma), 200 nM Bafilomycin A1 (BafA1, Sigma), 10 μM Lactacystin (Sigma) or 10 μM epoxomicin (Affinity research products ltd.) for 15 hours before fixation for immunofluorescence or processing for western blots. DMA, BafA1, epoxomicin and rapamycin were dissolved in DMSO and 3-MA and lactacystin were in water. Equal amounts of water or DMSO were added to the untreated controls, where relevant. The cells on coverslips were rinsed with 1×PBS, fixed with 4% paraformaldehyde in 1×PBS for 20 min and mounted in antifadent supplemented with 4′,6-diamidino-2-phenylindole (DAPI, 3 μg/ml, Sigma) to allow visualisation of nuclear morphology. The PC12 stable cells were maintained at 75 μg/ml hygromycin in standard medium consisting of high glucose DMEM (Sigma) with 100 U/ml penicillin/streptomycin, 2 mM L-glutamine (Invitrogen), 10% heat-inactivated horse serum (Invitrogen), 5% Tet-approved fetal bovine serum (FBS) (Clontech) and 100 μg/ml G418 (Invitrogen) at 37° C., 10% CO2. The cells were seeded at 1-2×10^5 per well in 6-well plates and were induced with 1 μg/ml doxycycline (Sigma) for 8 hours. The expression of transgenes was switched off by removing doxycycline from the medium. Cells were either left untreated or treated with 3-MA, BafA1, epoxomicin, lactacystin, rapamycin, 10 μg/ml cycloheximide (Sigma) or cycloheximide+rapamycin at the concentrations specified above for 24, 48 or 72 hours and the medium with the inhibitors/activator changed every 24 hours. The cells were then scraped off from the wells into 1.5 ml eppendorf tubes, pelleted at 8000 rpm and washed twice with 1×PBS. They were either fixed with 4% paraformaldehyde for 20 minutes and mounted in DAPI over coverslips on glass slides or processed for western blot analysis. CCI-779 was supplied by Wyeth Pharmaceuticals (Philadelphia). For tissue culture experiments, a stock solution of 1M in ethanol was prepared the day of experiment and was diluted in the appropriate medium
(§3) The pellets for westerns from COS-7 or PC12 cells were lysed on ice in Laemmli buffer (62.5 mM Tris-HCl pH6.8, 5% β-mercaptoethanol, 10% glycerol, and 0.01% bromophenol blue) for 30 min in the presence of protease inhibitors (Roche Diagnostics). The lysates were subjected to SDS-PAGE (10%) electrophoresis and proteins transferred onto nitrocellulose membrane (Amersham Pharmacia Biotech). […]

[2] = system: COS-7 cells expressing EGFP fused to 19 alanines (A19); assay: Aggregate formation and abnormal cell nuclei in transiently transfected COS-7 cells expressing A19; assay type: cell-based, African green monkey; settings: for proportions of A19-expressing cells with aggregates / appearance (size, number) of A19 aggregates in cells with aggregates / cell death (abnormal nuclei) in A19-expressing cells: 48 hours after transfection; for proportions of A19-expressing cells with aggregates: drug for 15 hours before fixing: 10 mM 3-MA, 0.5 mM DMA, 200 nM BafA1, 0.2 μg/ml rapamycin, 10 μM epoxomicin; for proportions of A19-expressing cells with aggregates / cell death (abnormal nuclei) in A19-expressing cells: vs untreated; for appearance (size, number) of A19 aggregates in cells with aggregates: immunofluorescence, drug 15 hours; for cell death (abnormal nuclei) in A19-expressing cells: drug for 15 hours before fixing, same concentrations
Text: as §1, §2, §3

[3] = system: PC12 cell line expressing EGFP-tagged HD exon 1 with Q74; assay: Turnover of Q74 protein and aggregates in stable doxycycline-inducible PC12 cells after switching expression off; assay type: cell-based, rat; settings: for numbers of aggregate containing cells / visible aggregates: vs time-matched control; for aggregate formation as high molecular weight fraction on the stack (western blot): 72 hours after switching off the expression, vs time-matched untreated controls
Method: as §2
The pellets for westerns from COS-7 or PC12 cells were lysed on ice in Laemmli buffer (62.5 mM Tris-HCl pH6.8, 5% β-mercaptoethanol, 10% glycerol, and 0.01% bromophenol blue) for 30 min in the presence of protease inhibitors (Roche Diagnostics). The lysates were subjected to SDS-PAGE (10%) electrophoresis and proteins transferred onto nitrocellulose membrane (Amersham Pharmacia Biotech). The primary antibodies used include mouse monoclonal anti-GFP antibody (8362-1, Clontech) at 1:2000, rabbit monoclonal anti-actin antibody (A2066, Sigma) at 1:3000, mouse monoclonal anti-tubulin antibody (Clone DM 1A, Sigma) at 1:1000 and mouse monoclonal anti-HA antibody (Covance) at 1:1000. Blots were probed with Horse Radish Peroxidase (HRP) conjugated anti-mouse or anti-rabbit IgG (Bio Rad) at 1:2000. Bands were visualised using the ECL detection reagent (Amersham). […]

| Molecule | cell death (apoptotic nuclear morphology) in Q74-expressing cells [1] | proportions of Q74-expressing cells with aggregates [1] | appearance (size, number) of Q74 aggregates in cells with aggregates [1] | proportions of A19-expressing cells with aggregates [2] | appearance (size, number) of A19 aggregates in cells with aggregates [2] | cellular fluorescence ([3]; 8 h ON then 48 h OFF with 10 μM epoxomicin) | number of aggregate-containing cells ([3]; 8 h ON then 48 h OFF with 10 μM epoxomicin or 10 μM lactacystin, vs control) | heat shock protein 70 ([3]; epoxomicin treatment) | levels of an HA-tagged version of the HD exon 1 fragment with Q74 ([1]; western blot, 10 mM 3-MA) | levels of the transgene protein (EGFP-Q74) ([1]; western blot, 10 mM 3-MA) | cell death (abnormal nuclei) in A19-expressing cells [2] | levels of the transgene protein (EGFP-A19) ([2]; western blot, 10 mM 3-MA) | numbers of aggregate containing cells / visible aggregates ([3]; 8 h ON then 72 h OFF with drug) | aggregate formation as high molecular weight fraction on the stack (western blot) [3] | cell fluorescence (EGFP-Q74 clearance) ([3]; 8 h ON then 72 h OFF with drug, 0.2 μg/ml rapamycin, 10 μg/ml cycloheximide) | Q74 protein levels on a western blot ([3]; 8 h ON, then OFF with 0.2 μg/ml rapamycin, vs untreated control) |
| --- | --- | --- | --- | --- | --- | --- | --- | --- | --- | --- | --- | --- | --- | --- | --- | --- |
| CC[C@H](C)[C@H](NC(=O)[C@H]([C@@H](C)CC)N(C)C(C)=O)C(=O)N[C@H](C(=O)N[C@@H](CC(C)C)C(=O)[C@@]1(C)CO1)[C@@H](C)O [epoxomicin] | did not affect | did not affect | more aggregates in each aggregate-containing cell | increase | more aggregates in each aggregate-containing cell | obvious increase | reduction | marked increase | – | – | – | – | – | – | – | – |
| Cn1cnc(N)c2ncnc1-2 [3-MA, 3-methyl adenine] | increase | increased | increased their apparent size and number | increased | increased their apparent size and number | – | – | – | increase | increase | increase | increase | increased | increased aggregate formation | – | – |
| rapamycin | no significant change | no significant change | – | decrease | – | – | – | – | – | – | decrease | – | – | – | loss of fluorescence | decrease |
| CO/C1=C\C(C)=C\[C@@H](C)[C@@H](O)[C@@H](C)C/C(C)=C/C=C/[C@H](OC)[C@@H]([C@@H](C)[C@@H](O)[C@H](C)[C@@]2(O)C[C@@H](O)[C@H](C)[C@@H](C(C)C)O2)OC1=O [BafA1, Bafilomycin A1] | increase | increased | increased size | increased | increased size | – | – | – | – | – | increase | – | increased | increased aggregate formation | – | – |
